From patent publication US20250345277A1, “Ionizable Liposome, Preparation Thereof, and Application Thereof in Gene Delivery” (MAXIRNA (ZHEJIANG) TECHNOLOGY CO. LTD., priority 2021, published 2025)

Key:
[1] = Size and polydispersity index PDI of lipid nanoparticles (Malvern Zetasizer Nano ZS); assay type: physicochemical; conditions: LNP ionizable lipid/DOPE/cholesterol/DSPE-PEG2000 35/16/46.5/2.5 mol% encapsulating EGFP mRNA; for Particle Size: in nm (unit assumed)
Procedure: (§1) The ionizable lipid compound of Example 1 was dissolved in ethanol with DOPE, cholesterol and DSPE-PEG2000 (all purchased from AVT (Shanghai) Pharmaceutical Technology Co., Ltd.) at a molar ratio of 35:16:46.5:2.5 to prepare ethanol lipid solution, and enhanced green fluorescent protein (EGFP) mRNAs (Shanghai Maximna Pharmaceutical Engineering Co., Ltd., JN-4201) were diluted in 20 mM citrate buffer (pH=6.1) to obtain mRNA aqueous solution. Ethanol lipid solution and mRNA aqueous solution were mixed at a volume ratio of 1:3 by using a microfluidic device (Micro&Nano (Shanghai) Instrument Technology Co., Ltd., model: INano™ML), LNPs were prepared with a weight ratio of approximately 10:1 between total lipids and mRNAs. The medium was replaced by ultrafiltration, ethanol was removed and volumed with DPBS. Finally, the lipid nanoparticles were filtered through a 0.2 μm sterile filter to obtain a LNP formulation encapsulating eGFP mRNA using ionizable lipid/DOPE/cholesterol/DSPE-PEG2000 (35/16/46.5/2.5 mol %), the concentration of mRNAs being 0.002 mg/mL-0.5 mg/mL.
Using Malvern Zetasizer Nano ZS (Malvern UK), the size and polydispersity index PDI of lipid nanoparticles were measured at […].

[2] = Entrapment efficiency of LNP preparation encapsulating EGFP mRNA; assay type: physicochemical; conditions: LNP ionizable lipid/DOPE/cholesterol/DSPE-PEG2000 35/16/46.5/2.5 mol% encapsulating EGFP mRNA
Procedure: as §1, with “mg/mL. […]” for “mg/mL.”

DC2.4 cells = test: In vitro transfection of DC2.4 cells with EGFP mRNA LNP preparation (flow cytometry); assay type: cell-based, mouse; conditions: DC2.4 cells; for Cell Viability / Positive Rate (EGFP): EGFP mRNA LNP, 200 ng mRNA per well, flow cytometry; for Fluorescence Intensity: EGFP mRNA expression level, normalized based on the sample with the highest fluorescence intensity
Text: The description is based on peripheral blood mononuclear cells PBMC (Shanghai Oribiotech Co., Ltd.), human peripheral blood leukemia T cell Jurkat (ATCC), tumor infiltrating lymphocyte TIL (isolated from resected tumor tissue of a liver cancer patient, the preparation method refers to CN114763530A), mouse bone marrow-derived dendritic cells DC2.4 (Cell Bank of the Chinese Academy of Sciences), and Chinese hamster ovary cells CHO (ATCC) were used as verified cell lines for liposome transfection. PBMC, Jurkat, and TIL cells grew in suspension, while DC2.4 and CHO cells grew by adherent culture. All the operation steps of cell culture must strictly abide by the prescribed procedures, and sterile reagents is used to perform aseptic operations under a sterile workbench. The main steps are as follows: • 1) Cell recovery: the preserved cell cryopreservation solution was taken out of the −80° C. refrigerator, and was immediately put in a 37° C. water bath for rapid and continuous shaking, and was completely melted within one minute. Fresh medium was added to the 15 mL centrifuge tube in advance, and the cell solution was added to the centrifuge tube in a biological safety cabinet. A centrifuge tube of the same quality was taken and placed symmetrically in a centrifuge, centrifuged at a low speed at 1200 rpm for 5 min. After centrifugation, the supernatant was removed, and an appropriate amount of medium was slowly added along the tube wall. After the cells were evenly dispersed by blowing gently, the cell suspension was pipette and added to the culture bottle prepared in advance. The state and distribution of the cells in the early stage of recovery were observed under a microscope. The culture bottle was placed in a 5% CO2 incubator and incubated at 37° C., and the recovery time was recorded. • 2) Cell subculture: Under the microscope, if the cell density in the field of view reaches 80%-90%, the cells can be subcultured. Adherent cells need to be digested with trypsin. In order to avoid the residual serum in the culture medium to reduce the activity of trypsin, DPBS solution was added to wash once after removing the original culture medium. After remove the DPBS solution, trypsin was added to degrade the protein at the junction between cells. This separates the cells for further culture. The cells were gently shaked evenly and put into the incubator for digestion for 2 min. Immediately after the digestion was completed, an appropriate amount of medium was added to the original petri dish to terminate the digestion. Finally, the cells were carefully blowed off using a pipette and blowed until they are evenly dispersed, and then inoculated and subcultured at a certain ratio according to the experimental requirements. […]
• 1) DC2.4 cells recovery: the frozen DC2.4 cells were taken out from the −80° C. refrigerator, put in a 37° C. water bath to quickly thaw the cells, added to the preheated medium after thawing, centrifuged at 1200 rpm for 5 min, the supernatant was discarded, and an appropriate amount of DMEM medium with 10% FBS was added to resuspend the recovered DC2.4, and placed in a 5% CO2 incubator at 37° C. for activation and culture. • 2) According to the experimental arrangement, DC2.4 cells were plated on a 24-well plate one day in advance for cell transfection. Through cell counting, the number of cells and cell viability were recorded, the cell suspension were taken at 2×10^5 cells per well, then a certain volume of DMEM medium containing 10% FBS was added and mixed evenly, 1 mL of mixture was added to each well for subsequent transfection experiment. • 3) After 24 hours, the medium was gently removed 30 minutes in advance by a pipette, 1 mL DPBS was added to each well for washing and then removed, then 300 μL serum-free Opti-MEM medium was added to each well for subsequent transfection experiments.
Subsequent steps are the same as the transfection protocol for PBMC cells. […]

## CCCCCCCCCCCCCCCCC(O)CN(CCOCCOCCOCCN(CCOCCOCCOCCN(CC(O)CCCCCCCCCCCCCCCC)CC(O)CCCCCCCCCCCCCCCC)CCN1CCN(C)CC1)CC(O)CCCCCCCCCCCCCCCC (stereo not drawn) [H-C18]
[1]
  PDI: 0.143
  Particle Size: 73.8
[2]
  Entrapment Efficiency: 80.61%
DC2.4 cells
  Cell Viability: 97.4%
  Positive Rate (EGFP): 81.9%
  Fluorescence Intensity: 0.38

## CCCCCCCCCCC(O)CN(CCN(CCN1CCN(CCO)CC1)CCN(CC(O)CCCCCCCCCC)CC(O)CCCCCCCCCC)CC(O)CCCCCCCCCC (stereo not drawn) [I-C12]
[1]
  PDI: 0.114
  Particle Size: 83.8
[2]
  Entrapment Efficiency: 88.38%
DC2.4 cells
  Cell Viability: 98.5%
  Positive Rate (EGFP): 63.9%
  Fluorescence Intensity: 0.05

## CCCCCCCCCCCCC(O)CN(CCN(CCN1CCN(CCO)CC1)CCN(CC(O)CCCCCCCCCCCC)CC(O)CCCCCCCCCCCC)CC(O)CCCCCCCCCCCC (stereo not drawn) [I-C14]
[1]
  PDI: 0.180
  Particle Size: 120.3
[2]
  Entrapment Efficiency: 87.59%
DC2.4 cells
  Cell Viability: 97.0%
  Positive Rate (EGFP): 62.7%
  Fluorescence Intensity: 0.05

## CCCCCCCCCCCCCCC(O)CN(CCN(CCN1CCN(CCO)CC1)CCN(CC(O)CCCCCCCCCCCCCC)CC(O)CCCCCCCCCCCCCC)CC(O)CCCCCCCCCCCCCC (stereo not drawn) [I-C16]
[1]
  PDI: 0.147
  Particle Size: 96.3
[2]
  Entrapment Efficiency: 91.60%
DC2.4 cells
  Cell Viability: 81.3%
  Positive Rate (EGFP): 68.7%
  Fluorescence Intensity: 0.06

## CCCCCCCCCCCCCCCCC(O)CN(CCN(CCN1CCN(CCO)CC1)CCN(CC(O)CCCCCCCCCCCCCCCC)CC(O)CCCCCCCCCCCCCCCC)CC(O)CCCCCCCCCCCCCCCC (stereo not drawn) [I-C18]
[1]
  PDI: 0.109
  Particle Size: 72.3
[2]
  Entrapment Efficiency: 83.06%
DC2.4 cells
  Cell Viability: 86.0%
  Positive Rate (EGFP): 66.4%
  Fluorescence Intensity: 0.04

## CCCCCCCCCCC(O)CN(CCOCCN(CCOCCN(CC(O)CCCCCCCCCC)CC(O)CCCCCCCCCC)CCN1CCN(CCO)CC1)CC(O)CCCCCCCCCC (stereo not drawn) [J-C12]
[1]
  PDI: 0.105
  Particle Size: 99.7
[2]
  Entrapment Efficiency: 92.88%
DC2.4 cells
  Cell Viability: 81.8%
  Positive Rate (EGFP): 62.6%
  Fluorescence Intensity: 0.04

## CCCCCCCCCCCCC(O)CN(CCOCCN(CCOCCN(CC(O)CCCCCCCCCCCC)CC(O)CCCCCCCCCCCC)CCN1CCN(CCO)CC1)CC(O)CCCCCCCCCCCC (stereo not drawn) [J-C14]
[1]
  PDI: 0.121
  Particle Size: 126.1
[2]
  Entrapment Efficiency: 83.58%
DC2.4 cells
  Cell Viability: >99.0%
  Positive Rate (EGFP): 59.1%
  Fluorescence Intensity: 0.06

## CCCCCCCCCCCCCCC(O)CN(CCOCCN(CCOCCN(CC(O)CCCCCCCCCCCCCC)CC(O)CCCCCCCCCCCCCC)CCN1CCN(CCO)CC1)CC(O)CCCCCCCCCCCCCC (stereo not drawn) [J-C16]
[1]
  PDI: 0.077
  Particle Size: 104.1
[2]
  Entrapment Efficiency: 81.08%
DC2.4 cells
  Cell Viability: 85.2%
  Positive Rate (EGFP): 62.0%
  Fluorescence Intensity: 0.04

## CCCCCCCCCCCCCCCCC(O)CN(CCOCCN(CCOCCN(CC(O)CCCCCCCCCCCCCCCC)CC(O)CCCCCCCCCCCCCCCC)CCN1CCN(CCO)CC1)CC(O)CCCCCCCCCCCCCCCC (stereo not drawn) [J-C18]
[1]
  PDI: 0.163
  Particle Size: 93.7
[2]
  Entrapment Efficiency: 88.56%
DC2.4 cells
  Cell Viability: 83.6%
  Positive Rate (EGFP): 60.9%
  Fluorescence Intensity: 0.04

## CCCCCCCCCCC(O)CN(CCOCCOCCN(CCOCCOCCN(CC(O)CCCCCCCCCC)CC(O)CCCCCCCCCC)CCN1CCN(CCO)CC1)CC(O)CCCCCCCCCC (stereo not drawn) [K-C12]
[1]
  PDI: 0.075
  Particle Size: 75.9
[2]
  Entrapment Efficiency: 92.83%
DC2.4 cells
  Cell Viability: >99.0%
  Positive Rate (EGFP): 62.8%
  Fluorescence Intensity: 0.07

## CCCCCCCCCCCCC(O)CN(CCOCCOCCN(CCOCCOCCN(CC(O)CCCCCCCCCCCC)CC(O)CCCCCCCCCCCC)CCN1CCN(CCO)CC1)CC(O)CCCCCCCCCCCC (stereo not drawn) [K-C14]
[1]
  PDI: 0.155
  Particle Size: 122.7
[2]
  Entrapment Efficiency: 87.00%
DC2.4 cells
  Cell Viability: 82.3%
  Positive Rate (EGFP): 59.8%
  Fluorescence Intensity: 0.03

## CCCCCCCCCCCCCCC(O)CN(CCOCCOCCN(CCOCCOCCN(CC(O)CCCCCCCCCCCCCC)CC(O)CCCCCCCCCCCCCC)CCN1CCN(CCO)CC1)CC(O)CCCCCCCCCCCCCC (stereo not drawn) [K-C16]
[1]
  PDI: 0.185
  Particle Size: 76.0
[2]
  Entrapment Efficiency: 95.74%
DC2.4 cells
  Cell Viability: 93.4%
  Positive Rate (EGFP): 60.2%
  Fluorescence Intensity: 0.04

## CCCCCCCCCCCCCCCCC(O)CN(CCOCCOCCN(CCOCCOCCN(CC(O)CCCCCCCCCCCCCCCC)CC(O)CCCCCCCCCCCCCCCC)CCN1CCN(CCO)CC1)CC(O)CCCCCCCCCCCCCCCC (stereo not drawn) [K-C18]
[1]
  PDI: 0.134
  Particle Size: 124.2
[2]
  Entrapment Efficiency: 92.77%
DC2.4 cells
  Cell Viability: >99.0%
  Positive Rate (EGFP): 74.7%
  Fluorescence Intensity: 0.05

## CCCCCCCCCCC(O)CN(CCOCCOCCOCCN(CCOCCOCCOCCN(CC(O)CCCCCCCCCC)CC(O)CCCCCCCCCC)CCN1CCN(CCO)CC1)CC(O)CCCCCCCCCC [L-C12]
[1]
  PDI: 0.181
  Particle Size: 88.4
[2]
  Entrapment Efficiency: 93.38%
DC2.4 cells
  Cell Viability: 84.9%
  Positive Rate (EGFP): 58.1%
  Fluorescence Intensity: 0.07

## CCCCCCCCCCCCC(O)CN(CCOCCOCCOCCN(CCOCCOCCOCCN(CC(O)CCCCCCCCCCCC)CC(O)CCCCCCCCCCCC)CCN1CCN(CCO)CC1)CC(O)CCCCCCCCCCCC [L-C14]
[1]
  PDI: 0.126
  Particle Size: 101.5
[2]
  Entrapment Efficiency: 91.54%
DC2.4 cells
  Cell Viability: 99.0%
  Positive Rate (EGFP): 60.0%
  Fluorescence Intensity: 0.04
